The source of these data is patent publication US10202411B2, “3′-substituted methyl or alkynyl nucleosides nucleotides for the treatment of HCV” (priority 2014, dated 2019).

Where two headings read alike, the source gives them in different places. Where only a bound is given, the exact number is not on record here.

Data set [1] is described as follows: in vitro. As to conditions: human.
In data set [2] the test system is HCV genotype 1b replicon. Put plainly: HCV replicon assay (Zluc luciferase reporter). It is filed as cell-based. As to conditions: Huh-7-derived Zluc cells, genotype 1b replicon, luciferase, 72 hours, read-out: HCV Replicon EC50. As for the experimental part: Huh-7-derived cell line (Zluc) that harbors an HCV genotype 1b replicon and a luciferase reporter gene was grown in Dulbecco's Modified Eagle Medium (DMEM) supplemented with 10% fetal bovine serum, 2 mM GlutaMAX, 1% MEM nonessential amino acids, 100 IU/mL penicillin, 100 μg/mL streptomycin, and 0.5 mg/mL Geneticin® (G418). For dose response testing the cells were seeded in 96-well plates at 7.5×10^3 cells per well in a volume of 50 μL, and incubated at 37° C./5% CO2. Drug solutions were made up freshly in Huh-7 media as 2× stocks. Ten additional 5-fold dilutions were prepared from these stocks in DMEM without G418. At least three hours after Zluc cells were seeded, drug treatment was initiated by adding 50 μL of drug dilutions to the plates in duplicate. Final concentrations of drug ranged from 100 μM to 0.0000512 μM. Cells were then incubated at 37° C./5% CO2. Alternatively, compounds were tested at two concentrations (1 μM and 10 μM). […] After 72 hours of incubation, the inhibition of HCV replication was measured by quantification of photons emitted after mono-oxygenation of 5′-fluoroluciferin to oxyfluoroluciferin by firefly luciferase. For this, media was removed from the plates via gentle tapping. Fifty microliters of ONE-glo luciferase assay reagent was added to each well. The plates were shaken gently for 3 min at room temperature and luminescence was measured on a Victor^3 V 1420 multilabel counter (Perkin Elmer) with a 1 second read time using a 700 nm cut-off filter. The EC50 values were calculated from dose response curves from the resulting best-fit equations determined by Microsoft Excel and XLfit 4.1 software. When screening at two fixed concentrations, the results were expressed as % inhibition at 1 μM and 10 μM.

As to `CC(C)(CO)C(=O)SCCOP1(=O)OC[C@H]2[C@@H](O)[C@H](n3ccc(=O)[nH]c3=O)O[C@@H]2CO1` (single isomer, unassigned) [Compound 109 (Diastereomer 1)], the CC50 in data set [1] was over 50 µM. Further, the EC50 in data set [2] (Hepatitis C virus) was over 10 µM.

Compound `O=c1ccn([C@@H]2O[C@@H]3COP(=O)(OCc4ccccc4)OC[C@H]3[C@H]2O)c(=O)[nH]1` (single isomer, unassigned) [Compound 113 (Diastereomer 1)] registered a CC50 in data set [1] of over 50 µM. The concentration giving a half-maximal response (EC50) in data set [2] (Hepatitis C virus) is over 10 µM.

Compound `Nc1ccn([C@@H]2O[C@H](CO)[C@@H](CO)[C@H]2O)c(=O)n1` [Compound 206] came in with a CC50 in data set [1] of over 50 µM. The EC50 in data set [2] (Hepatitis C virus) was over 10 µM.

Compound `CC(C)OP1(=O)OC[C@H]2[C@@H](O)[C@H](n3ccc(=O)[nH]c3=O)O[C@@H]2CO1` (single isomer, unassigned) [Compound 108 (Diastereomer 1)] showed a CC50 in data set [1] of over 50 µM. Moreover, the EC50 in data set [2] (Hepatitis C virus) is over 10 µM.

In data set [1], `CCOc1nc(N)nc2c1ncn2[C@@H]1O[C@H](CO)[C@@H](CO)[C@H]1O` [Compound 227] returned a CC50 of over 50 µM. In addition, the EC50 in data set [2] (Hepatitis C virus) is over 10 µM.

Take `CC(O)[C@H]1[C@@H](O)[C@H](n2ccc(=O)[nH]c2=O)O[C@@H]1CO` (single isomer, unassigned) [Compound 211 (Single Isomer)]: in data set [1], the CC50 was over 50 µM. Further, the half-maximal effective concentration (EC50) in data set [2] (Hepatitis C virus) was over 10 µM.

In the case of `CC(C)(CO)C(=O)SCCOP1(=O)OC[C@H]2[C@@H](O)[C@H](n3ccc(=O)[nH]c3=O)O[C@@H]2CO1` (mixture of isomers) [Compound 109 (Mixture of diastereomers)], the CC50 in data set [1] is over 50 µM. Moreover, the concentration for a half-maximal effect (EC50) in data set [2] (Hepatitis C virus) is over 10 µM.

Turning to `O=c1ccn([C@@H]2O[C@H](CO)[C@@H](CO)[C@H]2O)c(=O)[nH]1` [Compound 205], the CC50 in data set [1] is over 50 µM. Further, in data set [2] (Hepatitis C virus), the EC50 was over 10 µM.

In the case of `CC(C)OC(=O)CCCOP1(=O)OC[C@H]2[C@@H](O)[C@H](n3ccc(=O)[nH]c3=O)O[C@@H]2CO1` (mixture of isomers) [Compound 112 (Mixture of diastereomers)], the CC50 in data set [1] is over 50 µM. Also, in data set [2] (Hepatitis C virus), the EC50 was over 10 µM.

As to `CC(C)OC(=O)[C@@H](C)NP1(=O)OC[C@H]2[C@@H](O)[C@H](n3ccc(=O)[nH]c3=O)O[C@@H]2CO1` (single isomer, unassigned) [Compound 110a (Diastereomer 1)], the CC50 in data set [1] is over 50 µM. Moreover, the EC50 in data set [2] (Hepatitis C virus) is over 10 µM.

The compound `O=c1ccn([C@@H]2O[C@@H]3COP(=O)(O)OC[C@H]3[C@H]2O)c(=O)[nH]1` [Compound 118] had a CC50 in data set [1] of over 50 µM. In addition, the concentration for a half-maximal effect (EC50) in data set [2] (Hepatitis C virus) is over 10 µM.

As to `CC(C)(CO)C(=O)SCCOP1(=O)OC[C@H]2[C@@H](O)[C@H](n3ccc(=O)[nH]c3=O)O[C@@H]2CO1` (single isomer, unassigned) [Compound 109 (Diastereomer 2)], in data set [2], the concentration for a half-maximal effect (EC50) is over 10 µM.

As for `CCOC(=O)[C@H](CC(C)C)NP(=O)(N[C@@H](CC(C)C)C(=O)OCC)OC[C@H]1O[C@@H](n2cnc3c(OCC)nc(N)nc32)[C@H](O)[C@@H]1CF` [Compound 129a], the CC50 in data set [1] is over 50 µM. Further, in data set [2] (Hepatitis C virus), the EC50 was over 10 µM.

Regarding `O=c1ccn([C@@H]2O[C@H](CO[PH](=O)OCc3ccccc3)[C@@H](CO)[C@H]2O)c(=O)[nH]1` (mixture of isomers) [Compound 114 (Mixture of diastereomers)], the CC50 in data set [1] is over 50 µM. Further, the 50% effective concentration (EC50) in data set [2] (Hepatitis C virus) was over 10 µM.

Take `Nc1ncnc2c1ncn2[C@@H]1O[C@H](CO)[C@@H](CO)[C@H]1O` [Compound 207]: the CC50 in data set [1] was over 50 µM. The EC50 in data set [2] (Hepatitis C virus) was over 10 µM.

As for `CC(C)OC(=O)CCCOP1(=O)OC[C@H]2[C@@H](O)[C@H](n3ccc(=O)[nH]c3=O)O[C@@H]2CO1` (single isomer, unassigned) [Compound 112 (Diastereomer 2)], the EC50 in data set [2] is over 10 µM.

`CC(C)OC(=O)CCCOP(=O)(O)OC[C@H]1O[C@@H](n2ccc(=O)[nH]c2=O)[C@H](O)[C@@H]1CO` [Compound 115] gave a CC50 in data set [1] of over 50 µM. Also, in data set [2] (Hepatitis C virus), the EC50 was over 10 µM.
